EP1944293A1, “Alpha-Polymorph of a substituted pyrazoline, its preparation and use as medicaments” (Laboratorios del Dr. Esteve S.A., priority 2007, dated 2008)

Experiments:
[1] = Stability of the crystalline form; assay type: physicochemical; settings: under certain conditions, especially around room temperature, and/or over time
Solubility = assay type: physicochemical
Herg channel = Herg channel (Homo sapiens, UniProt Q12809); experiment: Herg channel affinity; settings: low risk of prolongation of the QT-interval expected
Chain of Herg channel (Q12809 whole entry): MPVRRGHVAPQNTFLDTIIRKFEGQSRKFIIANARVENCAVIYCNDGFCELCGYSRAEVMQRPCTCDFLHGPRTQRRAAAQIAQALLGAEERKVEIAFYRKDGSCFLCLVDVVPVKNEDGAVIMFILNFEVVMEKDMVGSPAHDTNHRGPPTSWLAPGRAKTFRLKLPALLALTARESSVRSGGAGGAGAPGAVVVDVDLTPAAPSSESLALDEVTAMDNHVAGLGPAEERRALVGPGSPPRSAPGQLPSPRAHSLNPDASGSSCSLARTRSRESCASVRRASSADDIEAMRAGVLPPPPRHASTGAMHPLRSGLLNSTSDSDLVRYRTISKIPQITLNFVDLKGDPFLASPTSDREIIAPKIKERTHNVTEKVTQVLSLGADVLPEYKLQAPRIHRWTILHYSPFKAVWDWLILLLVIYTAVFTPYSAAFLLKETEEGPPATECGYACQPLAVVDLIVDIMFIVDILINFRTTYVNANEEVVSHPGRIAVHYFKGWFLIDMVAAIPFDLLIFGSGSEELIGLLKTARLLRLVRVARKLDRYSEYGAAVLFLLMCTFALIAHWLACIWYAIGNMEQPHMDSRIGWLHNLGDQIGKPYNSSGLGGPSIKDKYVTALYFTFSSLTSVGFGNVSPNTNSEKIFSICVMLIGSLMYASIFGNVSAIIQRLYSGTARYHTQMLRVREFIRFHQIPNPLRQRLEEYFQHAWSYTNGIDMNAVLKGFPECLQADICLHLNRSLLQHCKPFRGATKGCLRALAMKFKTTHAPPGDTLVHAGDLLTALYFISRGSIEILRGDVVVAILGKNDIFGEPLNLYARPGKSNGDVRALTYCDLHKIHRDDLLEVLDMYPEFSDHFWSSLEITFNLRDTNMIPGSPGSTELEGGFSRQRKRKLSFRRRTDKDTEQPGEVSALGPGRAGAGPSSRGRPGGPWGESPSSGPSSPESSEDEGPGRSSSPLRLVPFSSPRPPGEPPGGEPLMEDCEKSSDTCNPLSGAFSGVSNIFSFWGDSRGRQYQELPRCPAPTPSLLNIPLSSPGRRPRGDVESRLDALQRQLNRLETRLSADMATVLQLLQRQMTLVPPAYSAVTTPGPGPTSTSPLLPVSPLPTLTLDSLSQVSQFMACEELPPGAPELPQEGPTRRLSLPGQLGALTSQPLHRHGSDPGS

[2] = Plasma insulin assay in dietary-induced obese rats; assay type: in vivo, female Wistar rats; settings: Figure 6
Experimental: (§1) The experiment was performed on female Wistar rats (originally in the weight range 250-300 g). The rats were housed in pairs in polypropylene cages with solid floors and sawdust bedding at a temperature of 21±4°C and 55±20% humidity. Animals were maintained on a reverse phase light-dark cycle (lights off for 8 h from 09.30-17.30 h) during which time the room was illuminated by red light. Animals had free access to powdered high fat diet (VRF1 plus 20% lard), ground chocolate, ground peanuts and tap water at all times. The three different diets were contained in separate glass feeding jars with aluminum lids with a 3-4 cm hole cut in it to allow access to the food. Animals were housed in pairs for twelve weeks for the induction of obesity. Animals were then housed singly in polypropylene cages with wire grid floors to enable the food intake of each rat to be recorded. […] Animals were accustomed to these new conditions (individual housing and the wire-grid floor cages) for at least 14 days before the start of the baseline readings. […] Plasma insulin concentration was determined using Mercodia ultrasensitive rat insulin ELISA kits according to the manufacturers 50 µl sample protocol. […] Optical density at 450 nm was determined using a Molecular Devices VERSAmax tunable microplate reader and readings transferred to GraphPad Prism. […]

[3] = Determination of carcass fat content in dietary-induced obese rats; assay type: in vivo, female Wistar rats; settings: g per rat, Figure 4
Experimental: The experiment was performed on female Wistar rats (originally in the weight range 250-300 g). The rats were housed in pairs in polypropylene cages with solid floors and sawdust bedding at a temperature of 21±4°C and 55±20% humidity. Animals were maintained on a reverse phase light-dark cycle (lights off for 8 h from 09.30-17.30 h) during which time the room was illuminated by red light. Animals had free access to powdered high fat diet (VRF1 plus 20% lard), ground chocolate, ground peanuts and tap water at all times. The three different diets were contained in separate glass feeding jars with aluminum lids with a 3-4 cm hole cut in it to allow access to the food. Animals were housed in pairs for twelve weeks for the induction of obesity. Animals were then housed singly in polypropylene cages with wire grid floors to enable the food intake of each rat to be recorded. […] Animals were accustomed to these new conditions (individual housing and the wire-grid floor cages) for at least 14 days before the start of the baseline readings. […] Percentage fat in the freeze-dried sample was calculated as follows: % fat = [100 × (final cup weight-initial cup weight)]/sample weight [formula] Percentage fat in the original sample was calculated using the % water as follows: % fat in original sample = % fat[(100-%water)/100] […]

[4] = Feeding study in dietary-induced obese rats: food intake and body weight; assay type: in vivo, female Wistar rats; settings: end of 28 day treatment, Figure 3
Experimental: The experiment was performed on female Wistar rats (originally in the weight range 250-300 g). The rats were housed in pairs in polypropylene cages with solid floors and sawdust bedding at a temperature of 21±4°C and 55±20% humidity. Animals were maintained on a reverse phase light-dark cycle (lights off for 8 h from 09.30-17.30 h) during which time the room was illuminated by red light. Animals had free access to powdered high fat diet (VRF1 plus 20% lard), ground chocolate, ground peanuts and tap water at all times. The three different diets were contained in separate glass feeding jars with aluminum lids with a 3-4 cm hole cut in it to allow access to the food. Animals were housed in pairs for twelve weeks for the induction of obesity. Animals were then housed singly in polypropylene cages with wire grid floors to enable the food intake of each rat to be recorded. Polypropylene trays with cage pads were placed beneath each cage to detect any food spillage. Animals were accustomed to these new conditions (individual housing and the wire-grid floor cages) for at least 14 days before the start of the baseline readings. […] Food intake and body weight were measured once daily. […] Thus, means were adjusted for differences in body weight between the groups on Day 1 and standard errors of the mean (SEM) were calculated from the residuals of the statistical model. […]

[5] = target: T1, recombinant human cannabinoid 1 receptor (CB1) (Homo sapiens, UniProt P21554); experiment: In vitro determination of antagonism to CB1-receptor, [35S]GTPγS binding assay; assay type: biochemical; settings: compound 1 µM versus agonist WIN 55,212-2; 100 % = maximal antagonism with Rimonabant (1 µM)
T1 construct: expressed in transfected cells
T1 sequence (P21554 whole entry): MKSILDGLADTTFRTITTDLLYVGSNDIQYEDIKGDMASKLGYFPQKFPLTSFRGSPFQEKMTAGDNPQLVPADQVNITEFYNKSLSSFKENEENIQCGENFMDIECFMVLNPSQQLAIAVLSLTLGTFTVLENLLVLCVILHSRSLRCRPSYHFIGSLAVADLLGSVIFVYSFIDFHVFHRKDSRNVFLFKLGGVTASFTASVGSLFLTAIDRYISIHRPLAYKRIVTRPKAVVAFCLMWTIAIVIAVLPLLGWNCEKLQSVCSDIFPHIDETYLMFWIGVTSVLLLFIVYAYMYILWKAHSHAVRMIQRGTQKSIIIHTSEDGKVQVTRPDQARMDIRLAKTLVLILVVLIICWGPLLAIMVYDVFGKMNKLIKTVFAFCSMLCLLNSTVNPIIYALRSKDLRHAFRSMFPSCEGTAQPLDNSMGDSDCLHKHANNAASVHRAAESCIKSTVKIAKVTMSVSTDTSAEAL
Experimental: The reaction is performed in 96-well plates. […] Radioactivity is determined using a Wallac Microbeta Trilux. Each experiment is performed at least in duplicate.
The average of basal [^35S]GTPγS binding is subtracted from all binding data.

[6] = Plasma leptin assay in dietary-induced obese rats; assay type: in vivo, female Wistar rats; settings: Figure 5
Experimental: as §1, with “leptin” for “insulin”, “Assay Designs” for “Mercodia ultrasensitive”, “leptin enzyme immunometric assay” for “insulin ELISA”, “kits (Cat No. 900-015)” for “kits”, “manufacturer's regular” for “manufacturers 50 µl sample”

[7] = 10 mg/kg po once daily for 28 days
[8] = 30 mg/kg po once daily for 28 days

O=C(NN1CCCCC1)C1=NN(c2ccc(Cl)cc2Cl)[C@@H](c2ccc(Cl)cc2)C1 [α-Polymorph, α-Polymorph of (R)-N-piperidinyl-5-(4-chlorophenyl)-1-(2,4-dichlorophenyl)-4,5-dihydro-1H-pyrazole-3-carboxamide]
stability [1]: good stability | solubility (Solubility): relatively good | Herg channel affinity (Herg channel): relatively weak

O=C(NN1CCCCC1)C1=NN(c2ccc(Cl)cc2Cl)[C@@H](c2ccc(Cl)cc2)C1 [Compound A, (R)-N-piperidinyl-5-(4-chlorophenyl)-1-(2,4-dichlorophenyl)-4,5-dihydro-1H-pyrazole-3-carboxamide]
decrease of plasma insulin levels compared to the vehicle-treated control group [2, 7]: 38.9% | decrease of plasma insulin levels compared to the vehicle-treated control group [2, 8]: 41.8% | decrease in body fat compared to the vehicle-treated control group [3, 7]: 42.8 g | decrease in body fat compared to the vehicle-treated control group [3, 8]: 67.8 g | body weights lower than those of the vehicle-treated controls ([4]; 10 mg/kg po once daily): 12.0% | body weights lower than those of the vehicle-treated controls ([4]; 30 mg/kg po once daily): 19.0% | Antagonism [%] [5]: 106% | decrease of plasma leptin levels compared to the vehicle-treated control group [6, 7]: 36.1% | decrease of plasma leptin levels compared to the vehicle-treated control group [6, 8]: 61.7%
